Structures can show the parent of a compound that is named as a salt.
Experiment: Concentration required to inhibit the enzyme cathepsin

- Ki: 4 µM
Structure (SMILES): CCC[C@H](NC(=O)[C@H](Cc1ccc(OC)cc1)NC(=O)CC(C)C)C(=O)N[C@@H](CC1CCCCC1)C(=O)C(F)(F)CN [(S)-2-[(S)-3-(4-Methoxy-phenyl)-2-(3-methyl-butyrylamino)-propionylamino]-pentanoic acid ((S)-4-amino-1-cyclohexylmethyl-3,3-difluoro-2-oxo-butyl)-amide; hydrochloride]

Reference: BindingDB's records for doi:10.1016/S0960-894X(00)80383-2 (1992)
